Measurements from US9006250B2, “4-amino-6-(heterocyclic)picolinates and 6-amino-2-(heterocyclic)pyrimidine-4-carboxylates and their use as herbicides” (Dow AgroSciences, LLC, priority 2013, dated 2015).

Assays:
Test in all cases: Post-Emergent Test I herbicidal activity
Type in all cases: in vivo
Details in all cases: 4 Kg ai/ha
[1] = system: AVEFA: wild oats (Avena fatua)
Experimental: (§1) Post-Emergent Test I: Seeds test species were obtained from commercial suppliers and planted into a 5″-round pot containing soil-less media mix (Metro-Mix 360®, Sun Gro Horticulture). Postemergence treatments were planted 8-12 days (d) prior to application and cultured in a greenhouse equipped with supplemental light sources to provide a 16 hour (h) photoperiod at 24-29° C. All pots were surface irrigated. Approximately 10 milligrams (mg) of each compound were dissolved in 1.3 mL acetone-DMSO (97:3, v/v) and diluted with 4.1 mL water-isopropanol-crop oil concentrate (78:20:2, v/v/v) containing 0.02% Triton X-155. Treatments were serial diluted with the above formulation solvent to provide 1.85, 0.926, 0.462 and 0.231 mg/mL of test compound delivered in 2.7 mL/pot (roughly equivalent to 4.0, 2.0, 1.0, and 0.5 kg/ha, respectively). Formulated compounds were applied using a DeVilbiss® compressed air sprayer at 2-4 pounds per square inch (psi). Following treatment, pots were returned to the greenhouse for the duration of the experiment. All pots were sub-irrigated as need to provide optimum growing conditions. All pots were fertilized one time per week by subirrigating with Peters Peat-Lite Special® fertilizer (20-10-20). Phytotoxicity ratings were obtained 10 days after treatment postemergence applications. All evaluations were made visually on a scale of 0 to 100 where 0 represents no activity and 100 represents complete plant death. Visual assessments of plant injury were made based on growth reduction, discoloration, leaf deformity and necrosis.

[2] = system: SETFA: giant foxtail (Setaria faberi)
Experimental: as §1

[3] = system: IPOHE: ivyleaf morningglory (Ipomoea hederecea)
Experimental: as §1

[4] = system: HELAN: sunflower (Helianthus annuus)
Experimental: as §1

[5] = system: ECHCG: barnyardgrass (Echinochloa crus-galli)
Experimental: as §1

COC(=O)c1nc(-c2cc3nonc3cc2F)nc(N)c1OC [Compound 10, Methyl 6-amino-2-(6-fluorobenzo[c][1,2,5]oxadiazol-5-yl)-5-methoxypyrimidine-4-carboxylate]
C (75-84): Visual Growth Reduction (%) 10 Days After Application AVEFA [1] | Visual Growth Reduction (%) 10 Days After Application SETFA [2] | Visual Growth Reduction (%) 10 Days After Application IPOHE [3] | Visual Growth Reduction (%) 10 Days After Application HELAN [4] | Visual Growth Reduction (%) 10 Days After Application ECHCG [5]
